The source of these data is US7045528B2, “Benzofused heterozryl amide derivatives of thienopyridines useful as therapeutic agents, pharmaceutical compositions including the same, and methods for their use” (Agouron Pharmaceuticals, Inc., priority 2002, dated 2006).

SMILES strings stand for the structures.

In one assay the target is T1, PDGFRβ (Homo sapiens, UniProt P09619).
T1 construct: expressed in transfected cells; host or cells: porcine aorta endothelial (PAE)-PDGFRβ cells
Nature of the assay: PAE-PDGFRβ phosphorylation in PAE-PDGFRB cells assay. It counts as cell-based. To be noted: PAE cells overexpressing human PDGFRβ, PDGF-BB stimulated; read-out: PAE PDGFR autophos IC50 (nM) AVG. Here is the method:
PAE-PDGFRβ Phosphorylation in PAE-PDGFRB Cells Assay
This assay determines the ability of a test compound to inhibit the autophosphorylation of PDGFRβ in porcine aorta endothelial (PAE)-PDGFRβ cells. PAE cells that overexpress human PDGFRβ were used in this assay. The cells were cultured in Ham's F12 media supplemented with 10% fetal bovine serum (FBS) and 400 ug/ml G418. Twenty thousands cells were seeded in each well of a 96-well plate in 50 μL of growth media and allowed to attach for 6 hours at 37° C. Cells were then exposed to the starvation media (Ham's F12 media supplemented with 0.1% FBS) for 16 hours. After the starvation period was over, 10 μL of test agent in 5% DMSO in starvation media were added to the test wells and 10 μL of the vehicle (5% DMSO in starvation media) were added into the control wells. The final DMSO concentration in each well was 0.5%. Plates were incubated at 37° C. for 1 hour and the cells were then stimulated with 1 μg/mL PDGF-BB (R & D System) in the presence of 2 mM Na3VO4 for 8 minutes. The cells were washed once with 1 mm Na3VO4 in HBSS and lysed by adding 50 μL per well of lysis buffer. One hundred μL of dilution buffer were then added to each well and the diluted cell lysate was transferred to a 96-well goat ant-rabbit coated plate (Pierce), which was pre-coated with Rabbit anti Human PDGFRβ antibody (Santa Cruz). The plates were incubated at room temperature for 2 hours and washed seven times with 1% Tween 20 in PBS. HRP-PY20 (Santa Cruz) was diluted and added to the plate for a 30-minute incubation. Plates were then washed again and TMB peroxidase substrate (Kirkegaard & Perry) was added for a 10-minute incubation. One hundred μL of 0.09 N H2SO4 was added into each well of the 96-well plate to stop the reaction. Phosphorylation status was assessed by spectrophotometer reading at 450 nm. IC50 values were calculated by curve fitting using a four-parameter analysis.

Assay [1] deals with human umbilical vein endothelial cells (HUVEC). Nature of the assay: HUVEC+VEGF proliferation assay. It counts as cell-based. To be noted: Homo sapiens, HUVEC; VEGF 6 ng/mL, 72 h, MTT. Here is the method: HUVEC+VEGF Proliferation Assay
This assay determines the ability of a test compound to inhibit the growth factor-stimulated proliferation of human umbilical vein endothelial cells (“HUVEC”). HUVEC cells (passage 3–4; Clonetics, Corp.) were thawed into EGM2 culture medium (Clonetics Corp) in T75 flasks. Fresh EGM2 medium was added to the flasks 24 hours later. Four or five days later, cells were exposed to another culture medium (F12K medium supplemented with 10% fetal bovine serum (FBS), 60 μg/mL endothelial cell growth supplement (ECGS), and 0.1 mg/mL heparin). Exponentially-growing HUVEC cells were used in experiments thereafter. Ten to twelve thousand HUVEC cells were plated in 96-well dishes in 100 μl of rich, culture medium (described above). The cells were allowed to attach for 24 hours in this medium. The medium was then removed by aspiration and 105 μl of starvation media (F12K+1% FBS) was added to each well. After 24 hours, 15 μl of test agent dissolved in 1% DMSO in starvation medium or this vehicle alone was added into each treatment well; the final DMSO concentration was 0.1%. One hour later, 30 μl of VEGF (30 ng/mL) in starvation media was added to all wells except those containing untreated controls; the final VEGF concentration was 6 ng/mL. Cellular proliferation was quantified 72 hours later by MTT dye reduction, at which time cells were exposed for 4 hours MTT (Promega Corp.). Dye reduction was stopped by addition of a stop solution (Promega Corp.) and absorbance at 595 nm was determined on a 96-well spectrophotometer plate reader.

For a further assay, the system named is Huvec. In words: bFGF Huvec proliferation. It counts as cell-based, human. The note with it: Homo sapiens, HUVEC.
In assay [2] the target is T2, unphosphorylated VEGF-R2Δ50 (FLVK) (Homo sapiens, UniProt P35968, DEL940-989/E990V).
T2 construct: VEGF-R2Δ50 contains residues 806–939 and 990–1171; made in house; host or cells: baculovirus/insect cell system
Nature of the assay: VEGF-R2 coupled spectrophotometric assay, unphosphorylated VEGF-R2Δ50 (FLVK). The class given is biochemical. To be noted: unphosphorylated VEGF-R2Δ50; for inhibition at 0.05 µM: 50 nM compound, read-out: FLVK (% inh @ 50 nM). The procedure, abridged:
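Ki obtained by Morrison-equation fitting of activity at varied compound levels; reaction started with 5–40 nM enzyme. Non-autophosphorylated kinase construct (insect cell-expressed) with 3 mM ATP, 20 mM poly(E4Y1), 60 mM MgCl2 plus 2 mM MnCl2, pH 7.5 HEPES; NADH loss at 340 nm via PK/LDH coupling.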

T2 sequence (P35968 with tags, fused parts or gaps DEL940-989/E990V limits assumed): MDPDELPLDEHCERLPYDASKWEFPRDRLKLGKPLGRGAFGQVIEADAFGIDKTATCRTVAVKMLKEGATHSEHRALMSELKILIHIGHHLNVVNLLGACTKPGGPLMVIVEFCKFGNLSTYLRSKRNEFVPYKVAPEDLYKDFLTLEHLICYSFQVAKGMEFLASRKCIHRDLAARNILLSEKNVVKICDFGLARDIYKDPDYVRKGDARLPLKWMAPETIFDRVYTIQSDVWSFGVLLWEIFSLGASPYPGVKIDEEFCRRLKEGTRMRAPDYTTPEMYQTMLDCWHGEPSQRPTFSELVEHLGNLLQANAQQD
T1 sequence (P09619 33-1106): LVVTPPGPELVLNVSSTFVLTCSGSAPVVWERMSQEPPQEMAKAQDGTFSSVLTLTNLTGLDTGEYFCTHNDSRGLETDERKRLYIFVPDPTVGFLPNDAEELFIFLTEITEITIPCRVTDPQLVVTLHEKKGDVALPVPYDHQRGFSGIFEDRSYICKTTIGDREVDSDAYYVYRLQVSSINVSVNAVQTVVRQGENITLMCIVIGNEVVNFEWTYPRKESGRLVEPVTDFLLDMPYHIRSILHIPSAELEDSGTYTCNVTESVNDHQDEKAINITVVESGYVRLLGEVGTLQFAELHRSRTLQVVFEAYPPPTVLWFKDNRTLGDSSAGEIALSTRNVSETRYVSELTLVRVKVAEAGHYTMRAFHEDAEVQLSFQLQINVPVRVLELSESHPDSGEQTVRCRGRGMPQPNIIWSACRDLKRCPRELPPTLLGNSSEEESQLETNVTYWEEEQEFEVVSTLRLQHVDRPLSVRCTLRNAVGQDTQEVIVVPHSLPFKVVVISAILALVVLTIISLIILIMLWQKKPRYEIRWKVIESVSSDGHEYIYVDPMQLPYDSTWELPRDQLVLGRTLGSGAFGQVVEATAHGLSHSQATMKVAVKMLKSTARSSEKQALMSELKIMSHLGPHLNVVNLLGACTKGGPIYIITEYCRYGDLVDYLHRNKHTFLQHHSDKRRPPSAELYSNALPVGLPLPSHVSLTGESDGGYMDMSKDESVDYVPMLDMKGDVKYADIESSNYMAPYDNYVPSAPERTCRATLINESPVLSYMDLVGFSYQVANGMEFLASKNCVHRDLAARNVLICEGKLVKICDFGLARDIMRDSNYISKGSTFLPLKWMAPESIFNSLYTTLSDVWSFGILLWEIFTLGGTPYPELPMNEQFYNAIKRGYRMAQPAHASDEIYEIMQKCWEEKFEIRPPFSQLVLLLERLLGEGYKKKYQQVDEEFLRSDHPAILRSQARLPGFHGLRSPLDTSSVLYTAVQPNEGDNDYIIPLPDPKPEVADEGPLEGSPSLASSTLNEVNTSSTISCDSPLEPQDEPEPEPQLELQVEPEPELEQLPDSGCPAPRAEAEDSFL

`COC[C@@H]1CCCN1C(=O)c1cc2nccc(Oc3ccc4c(C(=O)NCC(C)C)c(C)oc4c3)c2s1` (stereo in doubt) [Example 85, 6[2-(2-Methoxymethyl-pyrrolidine-1-carbonyl)-thieno[3,2-b]pyridin-7-yloxy]-2-methyl-benzofuran-3-carboxylic acid isobutyl amide]: the IC50 on PDGFRβ stood at 27.3 nM; in assay [1], 3.92 nM; in the assay with Huvec it was 6990 nM. In addition, in assay [2], the inhibition at 0.05 µM worked out at 83%. For the same compound, the Ki in assay [2] stood at 1.71 nM.
On to `CO[C@@H]1CCN(C(=O)c2cc3nccc(Oc4ccc5c(C(=O)NC6CC6)c(C)sc5c4)c3s2)C1` [Example 11, 6-[(2-{[(3R)-3-methoxypyrrolidin-1-yl]carbonyl}thieno[3,2-b]pyridin-7-yl)oxy]-2-methylbenzo[b]thiophene-3-carboxylic acid cyclopropylamide], for which the values for the half-inhibitory concentration (IC50) (at PDGFRβ; in assay [1]; in the assay with Huvec) were 104 nM, 0.56 nM and 40 nM, respectively. Besides, in assay [2], the inhibition at 0.05 µM amounted to 93%. This compound registered a Ki in assay [2] of 0.492 nM.
Consider `CCc1oc2cc(Oc3ccnc4cc(C(=O)N5CC[C@@H](OC)C5)sc34)ccc2c1C(=O)NC` [Example 14, 6-(2-[3-methoxypyrrolidine-1-carbonyl]thieno[3,2-b]pyridin-7-yloxy)-2-ethylbenzofuran-3-carboxylic acid methylamide], for which the half-inhibitory concentration (IC50) in assay [1] was determined as 9.4 nM. Further, in the assay on Huvec, half-maximal inhibition (IC50) was put at 287 nM. Further, in assay [2], the inhibition at 0.05 µM amounted to 81% and the inhibitory constant (Ki) was found to be 1.46 nM.
Regarding `CNC(=O)c1c(C)n(C)c2cc(Oc3ccnc4cc(C(=O)N5CCC[C@H]5CO)sc34)ccc12` [Example 16, 6-[2-(2-Hydroxymethyl-pyrrolidine-1-carbonyl)-thieno[3,2-b]pyridin-7-yloxy]-1,2-dimethyl-1H-indole-3-carboxylic acid methylamide], the IC50 in assay [1] turned out to be 10 nM; in the assay on Huvec it was 1000 nM. Moreover, the inhibition at 0.05 µM in assay [2] is 46%. This compound gave a Ki in assay [2] of 8.14 nM.
For `CNC(=O)c1c(C)[nH]c2cc(Oc3ccnc4cc(C(=O)N5CC[C@@H](O)C5)sc34)ccc12` [Example 24, 6-[2-(3-Hydroxy-pyrrolidine-1-carbonyl)-thieno[3,2-b]pyridin-7-yloxy]-2-methyl-1H-indole-3-carboxylic acid methylamide], in assay [1], the half-inhibitory concentration (IC50) is 32 nM. The compound further had a half-maximal inhibitory concentration (IC50) with Huvec of 10000 nM. In addition, in assay [2], the inhibition at 0.05 µM was 69% and the affinity corresponds to a Ki of 4.2 nM.
As for `CNC(=O)c1c(C)n(C)c2cc(Oc3ccnc4cc(C(=O)N5CCC5)sc34)ccc12` [Example 25], the figures for the 50% inhibitory concentration (IC50) (at PDGFRβ; in assay [1]; with Huvec) were 12 nM, 0.45 nM and 7460 nM, respectively. In assay [2], the inhibition at 0.05 µM stood at 70%. Also, the Ki in assay [2] amounted to 4.08 nM.
In the case of `CNC(=O)c1c(C)n(C)c2cc(Oc3ccnc4cc(-c5nc(CO)cs5)sc34)ccc12` [Example 26, 1,2-Dimethyl-6-(2-[4-(hydroxymethyl)thiazol-2-yl]thieno[3,2-b]pyridin-7-yloxy)-1H-indole-3-carboxylic acid methylamide], the IC50 on PDGFRβ stood at 13 nM; in assay [1], 0.74 nM; in the assay with Huvec, 2230 nM. The inhibition at 0.05 µM in assay [2] came to 83%. The Ki in assay [2] was determined as 3.66 nM.
The matching figures for `CNC(=O)c1c(C)n(C)c2cc(Oc3ccnc4cc(C(=O)N5CCCC5)sc34)ccc12` [Example 28, 1,2-Dimethyl-6-[2-(pyrrolidine-1-carbonyl)-thieno[3,2-b]pyridin-7-yloxy]-1H-indole-3-carboxylic acid methylamide]: 15 nM, 0.272 nM, 462 nM, 78% and 2.8 nM.
As for `Cc1c(C(=O)NCCCO)c2ccc(Oc3ccnc4cc(C(=O)N5CC[C@@H](O)C5)sc34)cc2n1C` [Example 64, 6-[2-((R)-3-Hydroxy-pyrrolidine-1-carbonyl)-thieno[3,2-b]pyridin-7-yloxy]-1,2-dimethyl-1H-indole-3-carboxylic acid (3-hydroxy-propyl)-amide], the IC50 is 10 nM in assay [1] and 10000 nM in the assay with Huvec. In assay [2], the inhibition at 0.05 µM came to 64%. The affinity in assay [2] corresponds to a Ki of 11.8 nM.
For the compound `CO[C@@H]1CCN(C(=O)c2cc3nccc(Oc4ccc5c(C(=O)NC6CC6)c(C)oc5c4)c3s2)C1` [Example 89, 6-[2-(3-Methoxypyrrolidine-1-carbonyl)-thieno[3,2-b]pyridin-7-yloxy]-2-methyl-benzofuran-3-carboxylic acid cyclopropylamide], the IC50 on PDGFRβ came out at 250 nM; in the assay on Huvec it was 5.2 nM. Besides, the inhibition at 0.05 µM in assay [2] came out at 95%. This compound displayed a Ki in assay [2] of 0.419 nM.
Take `Cc1oc2cc(Oc3ccnc4ccsc34)ccc2c1C(=O)Nc1nnc(-c2ccccc2)s1` [Example 106, 2-Methyl-6-(thieno[3,2-b]pyridin-7-yloxy)-benzofuran-3-carboxylic acid (5-phenyl-[1,3,4]thiadiazol-2-yl)-amide]: the results for the IC50 (in assay [1]; in the assay with Huvec) were 10 nM and 638 nM, respectively. In addition, in assay [2], the inhibition at 0.05 µM was 98%.
As to `Cc1sc2cc(Oc3ccnc4cc(-c5nccn5C)sc34)ccc2c1C(=O)NCCCO` [Example 118, 2-Methyl-6-{[2-(1-methyl-1H-imidazol-2-yl)thieno[3,2-b]pyridin-7-yl]oxy}benzo[b]thiophene-3-carboxylic acid 3-hydroxypropylamide], in assay [1], the IC50 was found to be 0.9 nM. The same compound displayed a half-maximal inhibitory concentration (IC50) in the assay on Huvec of 736 nM. Further, in assay [2], the inhibition at 0.05 µM was 84% and the affinity corresponds to a Ki of 1.2 nM.
On to `COC[C@@H]1CCCN1C(=O)c1cc2nccc(Oc3ccc4c(C(=O)NCC5CC5)c(C)sc4c3)c2s1` [Example 132, 6[(2-{[(2S)-2-(Methoxymethyl)pyrrolidin-1-yl]carbonyl}thieno[3,2-b]pyridin-7-yl)oxy]-2-methylbenzo[b]thiophene-3-carboxyllc acid (cyclopropylmethyl)amide], for which, at PDGFRβ, the half-inhibitory concentration (IC50) stood at 467 nM. Also, in assay [1], the concentration for half-maximal inhibition (IC50) amounted to 5.8 nM. Besides, in assay [2], the inhibition at 0.05 µM is 80% and the inhibition constant (Ki) was determined as 1.78 nM.
Consider `CCc1sc2cc(Oc3ccnc4cc(C(=O)N5CC[C@@H](O)C5)sc34)ccc2c1C(=O)NC` [Example 136, 2-Ethyl-6-[(2-{[(3R)-3-hydroxypyrrolidin-1-yl]carbonyl}thieno[3,2-b]pyridin-7-yl)oxy]benzo[b]thiophene-3-carboxylic acid methylamide], for which the concentration for half-maximal inhibition (IC50) at PDGFRβ was 609 nM. In addition, the IC50 in assay [1] was 10 nM. In assay [2], the inhibition at 0.05 µM is 88% and the affinity, expressed as Ki, was 1.17 nM.
Regarding `CCc1sc2cc(Oc3ccnc4cc(C(=O)N5CCC5)sc34)ccc2c1C(=O)NC` [Example 138, 6-{[2-(Azetidin-1-ylcarbonyl)thieno[3,2-b]pyridin-7-yl]oxy}-2-ethylbenzo[b]thiophene-3-carboxylic acid methylamide], the IC50 at PDGFRβ was 110 nM. In addition, the concentration for half-maximal inhibition (IC50) in assay [1] came out at 9.9 nM. In assay [2], the inhibition at 0.05 µM was found to be 85% and the affinity, expressed as Ki, was 0.78 nM.

As usually defined, the IC50 is the concentration needed to halve the response being measured. Usually Ki stands for the dissociation constant of the complex between target and ligand, obtained from inhibition or displacement. A high value points to lower affinity.
